The source of these data is US20070093461A1, “Effect of Loteprednol etabonate on vascular dysfunction” (Bausch & Lomb Incorporated, priority 2005, published 2007).

Format in all cases: cell-based, human
In one data set the test system is sVCAM-1. The experiment in a line: ELISA for sVCAM-1 in supernatants of LE-treated HREC. To be noted: HREC with or without LPS activation; LE 0, 10, 25 & 50 μM, 3 days; p≦0.05 (FIG. 2A). The procedure: (§1) HREC were treated with LE (10, 25 and 50 μM) for 3 days. Supernatants were removed and microcentrifuge (Beckman Microfuge R) 1000 RPM for 10 min (4° C. after which they were stored at −70° C. until needed. ELISA kits (R&D systems) for human vascular endothelial growth factor (VEGF), soluble intracellular adhesion molecule (sICAM-1) and soluble vascular cell adhesion molecule (sVCAM-1) were used according to the manufacturer's instructions.
A general note: An ELISA detects its analyte on a solid surface through an enzyme-linked reagent.

The next data set relates to occludin. The experiment in a line: Western blot analysis of occludin in cell lysates. To be noted: LE 0, 10 & 50 μM; daily administration for 3 days necessary to maintain effect. The procedure: Cells were treated with LE (0, 10 & 50 μM) for either 3 days or LE (0, 10 & 50 μM) was replenished everyday for 3 days. Cells were lysed and protein levels determined/adjusted (see above). SDS PAGE was performed on cell lysates and then separated proteins were transferred on to a nitrocellulose (NC) paper (Invitrogen). NC paper was blocked with 3% non-fat milk in phosphate buffered saline (PBS) for 1 hour and then probed with specific anti bodies to occludin (Rabbit anti-occludin polyclonal and monoclonal antibodies, Zymed); Goat anti-occludin (Santa Cruz). NC paper was then incubated with secondary horseradish peroxidase conjugated antibody for 1 hour and the bands were visualized using DAB (3,3′-diaminobenzidine) (Vector Laboratories) or cheminluminescence (SuperSignal West Dura, Pierce).

The test system of a further data set is ZO-1. The experiment in a line: Immunohistochemistry of tight junction protein ZO-1 in VEGF-treated HREC. To be noted: LE 10 & 50 μM for 1 hour, then VEGF 20 ng/ml for 1 hour, listed as LE. The procedure:
Human retina endothelial cells were seeded onto an 8-well glass chamber and allowed to become 80-90% confluent. Cells were treated with or without LE for 1 hour and then treated with VEGF (20 ng/ml) for 1 hour. HREC were immediately fixed and stained with specific antibodies to occludin and zonula occluden-1 (Zymed). FITC-conjugated secondary antibodies (R&D Systems) were used to visualize tight junction distribution/integrity.

The next data set deals with HREC. The experiment in a line: Cellular toxicity in LE-treated HREC. The conditions noted are these: highest concentration of LE tested (50 μM).
A further data set concerns sICAM-1. The experiment in a line: ELISA for sICAM-1 in supernatants of LE-treated HREC. To be noted: HREC with or without LPS activation; LE 0, 10, 25 & 50 μM, 3 days; p≦0.05 (FIG. 2B). The procedure:
as §1

For another data set, the system named is VEGF. In words: ELISA for VEGF in supernatants of LE-treated HREC. To be noted: LE 0, 10, 25 & 50 μM, 3 days. The procedure: as §1

Structures are written as SMILES. “Also recorded” adds a separate entry of the source.

In the case of `CCOC(=O)O[C@]1(C(=O)OCCl)CC[C@H]2[C@@H]3CCC4=CC(=O)C=C[C@]4(C)[C@H]3[C@@H](O)C[C@@]21C` [Loteprednol etabonate], in the data set with sVCAM-1, the “expression of sVCAM-1” value is on record as “significantly down regulated”. The “total content of occludin” value with occludin is recorded as “increased”. The “effect on VEGF-induced disruption/redistribution of ZO-1 (tight junction)” value in the data set with ZO-1 is “reversed the effect of VEGF tight junction disruption; also recorded: inhibited the effect of VEGF-induced disruption of ZO-1”. Further, in the data set with HREC, the cellular toxicity result is “no apparent cellular toxicity”. For the same molecule, the “expression of sICAM-1” value with sICAM-1 is recorded as “significantly down regulated”. Besides, the “expression of VEGF” value in the data set with VEGF (HREC with LPS activation, p≦0.01 (FIG. 1A)) is on record as “significantly down regulated”; with VEGF (HREC without LPS activation, p≦0.01 (FIG. 1B)), “significantly down regulated”.
